Results reported in patent US20240108734A1, “METHODS FOR TREATING AND AMELIORATING CANCER” (The Regents of the University of California, priority 2021, published 2024).
Entries after “also recorded” stand apart in the source; their conditions may differ.

What was measured:
[1] = test system: normal cord blood CD34+ cells; assay: Normal HSC (cord blood CD34+) engrafted mouse model; type: in vivo, mice
Description: FIG. 9A-B graphically illustrate data showing that normal HSC mouse xenograft models were established with normal cord blood CD34^+ cells by intrahepatic injection into neonatal Rag2^−/− c^−/− mice; FACS analysis of mice treated with either vehicle (0.9% NS), mismatch control (30 mg/kg) or imetelstat (30 mg/kg) followed by quantification of human CD45^+ cells in BM (FIG. 9A) and in spleen (FIG. 9B);

MF CD34+ cells (pre-LSC) = assay: SL/M2 stromal co-culture, clonogenic survival and self-renewal (replating) assays, myelofibrosis; type: cell-based, human; conditions: imetelstat only (5 uM in b222), compared with normal bone marrow; for self-renewal capacity (replating) of MF CD34+ cells (pre-LSC): p<0.001; for survival of MF CD34+ cells (pre-LSC): p<0.01
Excerpt: Lentiviral human wild-type and mutant ADAR1^E912A (pCDH-EF1-T2A-copGFP) and shRNA targeting ADAR1 were produced according to published protocols^27,37. In Vitro MPN-SPC and LSC Survival and Self-Renewal Assays with Imetelstat To assess MPN progenitor and LSC survival and self-renewal in vitro, human primary CD34^+ cells selected from BC CML (n=5), MF (n=9) or age matched normal bone marrow (a-NBM, n=4) were co-cultured with SL/M2 stromal cells for 7-14 days, and then treated with imetelstat alone or combined with dasatinib for BC CML or Pacritinib for MF. Colony forming and replating assays were performed as previously described^32.
To assess MPN progenitor and LSC survival and self-renewal in vitro, human primary CD34^+ cells selected from BC CML (n=5), MF (n=9) or age matched normal bone marrow (a-NBM, n=4) were co-cultured with SL/M2 stromal cells for 7-14 days, and then treated with Imetelstat alone or combined with dasatinib for BC CML or Pacritinib for MF. Colony forming and replating assays were performed as previously described^32,33.
FIG. 3A. A schematic illustration of SL/M2 stromal co-cultures established to quantify in vitro MPN-SPC and LSC survival and self-renewal. Human primary CD34^+ cells selected from BC CML (n=5), MF (n=9) or age matched normal bone marrow (a-NBM, n=4) were co-cultured with SL/M2 stromal cells for 7-14 days. While BC CML stromal co-cultures were treated with increasing doses of imetelstat with or without dasatinib, MF stromal co-cultures were treated with imetelast with or without pacritinib.
FIG. 3D. Imetelstat was used at concentrations ranging from 1 to 10 μM to treat aged normal bone marrow (aNBM, n=4, dark blue) compared with myelofibrosis (MF, light blue, n=9) in stromal co-cultures followed by clonogenic survival (upper panel) and self-renewal (lower panel) assays (**p<0.01, ***p<0.001).
FIG. 3E. Imetelstat was used at concentrations ranging from 1 to 10 μM alone or in combination with pacritinib (5 nM) to treat aged normal bone marrow (a-NBM, n=4, blue) compared with MF (green, n=9) in stromal co-cultures followed by clonogenic survival (upper panel) and self-renewal (lower panel) assays.

## imetelstat
[1]; at doses reducing malignant RNA editing
  effect on normal hematopoietic stem cells: spared normal hematopoietic stem cells
[1]; imetelstat 30 mg/kg vs vehicle and mismatch control, BM and spleen
  normal cord blood engraftment (human CD45+ cells): no significant decrease; also recorded: does not reduce
MF CD34+ cells (pre-LSC)
  self-renewal capacity (replating) of MF CD34+ cells (pre-LSC): decrease
  survival of MF CD34+ cells (pre-LSC): decrease
MF CD34+ cells (pre-LSC); listed as Imetelstat
  self-renewal capacity (replating) of MF CD34+ cells (pre-LSC): significantly inhibited
  survival of MF CD34+ cells (pre-LSC): significantly inhibited
